From US12404279B2, “Deubiquitinase inhibitors and methods of use thereof” (Molecure S.A., priority 2021, dated 2025)
Counter-ions that a name gives are not always drawn. Like-named read-outs stand apart in the source and are kept apart here.

Molecular target: full-length USP7 (Homo sapiens (Human), UniProt Q93009)
Assay: Enzymatic assay to determine IC50 of USP7 inhibitors (Ubiquitin-Rhodamine 110 cleavage)
Assay type: biochemical
Settings: for inhibition at 1 µM: read-out: percent value of inhibition of USP7 activity; for IC50: 0.5 nM USP7, 0.5 μM Ubiquitin-Rhodamine 110, 45 min at 37° C.
Outline: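 Enzyme: 0.5 nM full-length USP7 in HEPES pH 7.5 buffer with NaCl, DTT, BSA and Tween20, given 15 min at room temperature with DTT before compounds were added.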

[1] = at 1 μM of the test compound, given where IC50 not determined yet

full-length USP7, sequence (Q93009 whole entry): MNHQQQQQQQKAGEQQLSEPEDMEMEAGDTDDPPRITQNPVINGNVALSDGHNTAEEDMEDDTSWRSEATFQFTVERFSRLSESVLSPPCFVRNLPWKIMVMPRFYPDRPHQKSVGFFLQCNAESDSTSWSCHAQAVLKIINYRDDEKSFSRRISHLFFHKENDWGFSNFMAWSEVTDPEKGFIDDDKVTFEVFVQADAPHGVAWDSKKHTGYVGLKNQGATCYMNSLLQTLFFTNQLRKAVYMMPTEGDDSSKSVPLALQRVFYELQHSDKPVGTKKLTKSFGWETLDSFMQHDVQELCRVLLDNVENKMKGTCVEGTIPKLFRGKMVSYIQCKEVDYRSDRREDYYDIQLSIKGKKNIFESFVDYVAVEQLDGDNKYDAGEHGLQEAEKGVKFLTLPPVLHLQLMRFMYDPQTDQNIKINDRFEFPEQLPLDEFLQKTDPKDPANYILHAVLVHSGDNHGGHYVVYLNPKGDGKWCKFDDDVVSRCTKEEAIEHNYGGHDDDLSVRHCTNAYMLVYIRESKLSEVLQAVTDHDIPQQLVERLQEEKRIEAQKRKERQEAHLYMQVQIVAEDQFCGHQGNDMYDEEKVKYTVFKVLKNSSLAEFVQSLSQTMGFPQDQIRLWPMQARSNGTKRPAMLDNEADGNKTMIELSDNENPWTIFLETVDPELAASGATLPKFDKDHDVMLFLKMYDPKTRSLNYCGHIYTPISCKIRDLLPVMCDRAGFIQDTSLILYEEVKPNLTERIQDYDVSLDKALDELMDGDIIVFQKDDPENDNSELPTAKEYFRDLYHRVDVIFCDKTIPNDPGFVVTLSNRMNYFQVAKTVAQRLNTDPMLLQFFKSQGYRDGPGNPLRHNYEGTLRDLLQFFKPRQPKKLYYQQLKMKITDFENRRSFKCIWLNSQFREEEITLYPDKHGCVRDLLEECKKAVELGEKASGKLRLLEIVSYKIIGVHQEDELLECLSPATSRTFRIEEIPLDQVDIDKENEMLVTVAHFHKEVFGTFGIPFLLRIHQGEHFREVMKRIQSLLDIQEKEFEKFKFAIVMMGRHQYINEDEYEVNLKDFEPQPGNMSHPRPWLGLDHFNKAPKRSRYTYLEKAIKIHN

Structure (SMILES) | IC50 | further results
Cc1cc(C(F)(F)F)nc(-c2ccnc3cc(CN4C(=O)C5C(C4=O)C5(C)C)sc23)c1Cn1cncn1 (stereo not drawn) [Example 36, 3-((7-(3-((1H-1,2,4-triazol-1-yl)methyl)-4-methyl-6-(trifluoromethyl)pyridin-2-yl)thieno[3,2-b]pyridin-2-yl)methyl)-6,6-dimethyl-3-azabicyclo[3.1.0]hexane-2,4-dione hydrochloride] | – | inhibition at 1 µM [1]: < 20%
Cc1cc(C(F)(F)F)nc(-c2ccnc3cc(CN4C(=O)C5C(C4=O)C5(C)C)sc23)c1C(=O)N1CC[C@H](C(C)N)C1 (stereo partly drawn) [Example 138, 3-((7-(3-((3S)-3-(1-aminoethyl)pyrrolidine-1-carbonyl)-4-methyl-6-(trifluoromethyl)pyridin-2-yl)thieno[3,2-b]pyridin-2-yl)methyl)-6,6-dimethyl-3-azabicyclo[3.1.0]hexane-2,4-dione trihydrochloride] | – | inhibition at 1 µM [1]: 50 to 70%
Cc1cc(Cl)nc(-c2ccnc3cc(CN4C(=O)C5C(C4=O)C5(C)C)sc23)c1C(=O)N1CCNCC1 (stereo not drawn) [Example 135, 3-((7-(6-chloro-4-methyl-3-(piperazine-1-carbonyl)pyridin-2-yl)thieno[3,2-b]pyridin-2-yl)methyl)-6,6-dimethyl-3-azabicyclo[3.1.0]hexane-2,4-dione 2,2,2-trifluoroacetate] | – | inhibition at 1 µM: < 20%
Cc1cc(C(F)(F)F)nc(-c2ccnc3cc(CN4C(=O)C5C(C4=O)C5(C)C)sc23)c1C(=O)N1CC[C@H](CN)C1 (stereo partly drawn) [Example 115, 3-((7-(3-((R)-3-(aminomethyl)pyrrolidine-1-carbonyl)-4-methyl-6-(trifluoromethyl)pyridin-2-yl)thieno[3,2-b]pyridin-2-yl)methyl)-6,6-dimethyl-3-azabicyclo[3.1.0]hexane-2,4-dione dihydrochloride] | 0.5 to 1 µM | –
Cc1cc(C(F)(F)F)nc(-c2ccnc3cc(CN4C(=O)C5C(C4=O)C5(C)C)sc23)c1C(=O)N1CCC(F)(F)C1 (stereo not drawn) [Example 83, 3-((7-(3-(3,3-difluoropyrrolidine-1-carbonyl)-4-methyl-6-(trifluoromethyl)pyridin-2-yl)thieno[3,2-b]pyridin-2-yl)methyl)-6,6-dimethyl-3-azabicyclo[3.1.0]hexane-2,4-dione hydrochloride] | < 0.5 µM | –
Cc1ccnc(-c2ccnc3cc(CN4C(=O)C5C(C4=O)C5(C)C)sc23)c1C(O)[C@@H]1CNCCO1 (stereo partly drawn) [Example 101, 3-((7-(3-(hydroxy((S)-morpholin-2-yl)methyl)-4-methylpyridin-2-yl)thieno[3,2-b]pyridin-2-yl)methyl)-6,6-dimethyl-3-azabicyclo[3.1.0]hexane-2,4-dione 2,2,2-trifluoroacetate] | – | inhibition at 1 µM: < 20%
Cc1cc(C(F)(F)F)nc(-c2ccnc3cc(CN4C(=O)C5C(C4=O)C5(C)C)sc23)c1C(=O)N1CC[C@H](NC(=O)[C@@H](N)C(C)C)C1 (stereo partly drawn) [Example 109, (2S)-2-amino-N-((3S)-1-(2-(2-((6,6-dimethyl-2,4-dioxo-3-azabicyclo[3.1.0]hexan-3-yl)methyl)thieno[3,2-b]pyridin-7-yl)-4-methyl-6-(trifluoromethyl)nicotinoyl)pyrrolidin-3-yl)-3-methylbutanamide dihydrochloride] | < 0.5 µM | –
Cc1cc(C(F)(F)F)nc(-c2ccnc3cc(CN4C(=O)C5C(C4=O)C5(C)C)sc23)c1C(=O)N1CCN(C)C[C@@H]1C (stereo partly drawn) [Example 79, 3-((7-(3-((S)-2,4-dimethylpiperazine-1-carbonyl)-4-methyl-6-(trifluoromethyl)pyridin-2-yl)thieno[3,2-b]pyridin-2-yl)methyl)-6,6-dimethyl-3-azabicyclo[3.1.0]hexane-2,4-dione hydrochloride] | < 0.5 µM | –
Cc1cc(Cl)cc(-c2ccnc3cc(CN4C(=O)C5C(C4=O)C5(C)C)sc23)c1NC(=O)[C@H]1CCNC1 (stereo partly drawn) [Example 34, (3S)—N-(4-chloro-2-(2-((6,6-dimethyl-2,4-dioxo-3-azabicyclo[3.1.0]hexan-3-yl)methyl)thieno[3,2-b]pyridin-7-yl)-6-methylphenyl)pyrrolidine-3-carboxamide 2,2,2-trifluoroacetate] | < 0.5 µM | –
